19 compounds from US6413935B1, “Induction of immune response against desired determinants” (priority 1993, dated 2002) can be followed below.

One assay deals with DR5. The following applies: read-out: PADRE Class II Binding Affinities DR5.
The subject of the next assay is DR7. The following applies: read-out: PADRE Class II Binding Affinities DR7.
The subject of another assay is DQ3.1. As to conditions: for IC50: read-out: PADRE Class II Binding Affinities, Table VIII A.

Like-named read-outs stand apart in the source and are kept apart here. Non-standard residues stand in square brackets, D forms with d. Residues, ends and D or L forms follow the SMILES beside them. Cha = N[C@@H](CC1CCCCC1)C(=O)O

In the case of `CC(C)C[C@H](NC(=O)[C@@H](NC(=O)[C@H](C)NC(=O)[C@@H](NC(=O)[C@H](C)NC(=O)[C@H](C)NC(=O)[C@H](CC1CCCCC1)NC(=O)[C@H](C)NC(=O)[C@@H](C)N)C(C)C)[C@@H](C)O)C(=O)N[C@@H](CCCCN)C(=O)N[C@@H](C)C(=O)N[C@@H](C)C(=O)N[C@H](C)C(N)=O` [Peptide 906.21] (H-[dA]A[Cha]AAVATLKAA[dA]-NH2; N-terminus and C-terminus assumed), the IC50 in the assay on DR5 (Table VIII A) amounted to 3.2 nM; in the assay with DR7 (Table VIII A), 42.4 nM.
As to `CC(C)C[C@H](NC(=O)[C@@H](NC(=O)[C@H](C)NC(=O)[C@H](Cc1ccccc1)NC(=O)[C@H](C)NC(=O)[C@H](C)NC(=O)[C@H](CC1CCCCC1)NC(=O)[C@H](C)NC(=O)[C@@H](C)N)[C@@H](C)O)C(=O)N[C@@H](CCCCN)C(=O)N[C@@H](C)C(=O)N[C@@H](C)C(=O)N[C@H](C)C(N)=O` [Peptide 906.22] (H-[dA]A[Cha]AAFATLKAA[dA]-NH2; N-terminus and C-terminus assumed), the IC50 with DR5 amounted to 3.4 nM; in the assay on DR7, 59.4 nM; in the assay with DQ3.1 it was 1880 nM.
`CC(C)C[C@H](NC(=O)[C@@H](NC(=O)[C@H](CCCCN)NC(=O)[C@H](C)NC(=O)[C@H](C)NC(=O)[C@H](C)NC(=O)[C@H](CC1CCCCC1)NC(=O)[C@H](C)NC(=O)[C@@H](C)N)[C@@H](C)O)C(=O)N[C@@H](CCCCN)C(=O)N[C@@H](C)C(=O)N[C@@H](C)C(=O)N[C@H](C)C(N)=O` [Peptide 906.23]: the IC50 in the assay on DR5 was determined as 2.2 nM; in the assay with DR7, 29.6 nM; in the assay with DQ3.1, 26.1 nM.
With `CC(C)C[C@H](NC(=O)[C@@H](NC(=O)[C@H](CCC(=O)O)NC(=O)[C@H](C)NC(=O)[C@H](C)NC(=O)[C@H](C)NC(=O)[C@H](CC1CCCCC1)NC(=O)[C@H](C)NC(=O)[C@@H](C)N)[C@@H](C)O)C(=O)N[C@@H](CCCCN)C(=O)N[C@@H](C)C(=O)N[C@@H](C)C(=O)N[C@H](C)C(N)=O` [Peptide 906.24], the IC50 in the assay on DR5 (Table VIII A) was determined as 11.1 nM; in the assay with DR7 (Table VIII A) it was 373 nM; with DQ3.1, 46.6 nM.
Take `CC(C)C[C@H](NC(=O)[C@@H](NC(=O)[C@H](CCC(N)=O)NC(=O)[C@H](C)NC(=O)[C@H](C)NC(=O)[C@H](C)NC(=O)[C@H](CC1CCCCC1)NC(=O)[C@H](C)NC(=O)[C@@H](C)N)[C@@H](C)O)C(=O)N[C@@H](CCCCN)C(=O)N[C@@H](C)C(=O)N[C@@H](C)C(=O)N[C@H](C)C(N)=O` [Peptide 906.25]: the IC50 in the assay with DR5 (Table VIII A) came to 3 nM; in the assay on DQ3.1, 42.5 nM.
Consider `CC(C)C[C@H](NC(=O)[C@@H](NC(=O)[C@@H](NC(=O)[C@H](C)NC(=O)[C@H](C)NC(=O)[C@H](C)NC(=O)[C@H](CC1CCCCC1)NC(=O)[C@H](C)NC(=O)[C@@H](C)N)C(C)C)[C@@H](C)O)C(=O)N[C@@H](CCCCN)C(=O)N[C@@H](C)C(=O)N[C@@H](C)C(=O)N[C@H](C)C(N)=O` [Peptide 906.26] (H-[dA]A[Cha]AAAVTLKAA[dA]-NH2; N-terminus and C-terminus assumed), for which the IC50 with DR5 (Table VIII A) worked out at 3.9 nM; in the assay on DR7 (Table VIII A), 65.8 nM; in the assay on DQ3.1, 27.9 nM.
On to `CC(C)C[C@H](NC(=O)[C@@H](NC(=O)[C@H](Cc1ccccc1)NC(=O)[C@H](C)NC(=O)[C@H](C)NC(=O)[C@H](C)NC(=O)[C@H](CC1CCCCC1)NC(=O)[C@H](C)NC(=O)[C@@H](C)N)[C@@H](C)O)C(=O)N[C@@H](CCCCN)C(=O)N[C@@H](C)C(=O)N[C@@H](C)C(=O)N[C@H](C)C(N)=O` [Peptide 906.27], for which the IC50 came to 2.6 nM in the assay with DR5 (Table VIII A), 65.8 nM in the assay with DR7 (Table VIII A) and 44.1 nM in the assay with DQ3.1.
In the same order, the values of `CC(C)C[C@H](NC(=O)[C@@H](NC(=O)[C@@H](NC(=O)[C@H](C)NC(=O)[C@H](C)NC(=O)[C@H](C)NC(=O)[C@H](CC1CCCCC1)NC(=O)[C@H](C)NC(=O)[C@@H](C)N)[C@@H](C)O)[C@@H](C)O)C(=O)N[C@@H](CCCCN)C(=O)N[C@@H](C)C(=O)N[C@@H](C)C(=O)N[C@H](C)C(N)=O` [Peptide 906.28] are 5 nM, 69.4 nM and 28.5 nM.
With `C[C@H](NC(=O)[C@H](C)NC(=O)[C@H](C)NC(=O)[C@H](CC1CCCCC1)NC(=O)[C@H](C)NC(=O)[C@@H](C)N)C(=O)N[C@@H](C)C(=O)N[C@H](C(=O)N[C@@H](CCCCN)C(=O)N[C@@H](CCCCN)C(=O)N[C@@H](C)C(=O)N[C@@H](C)C(=O)N[C@H](C)C(N)=O)[C@@H](C)O` [Peptide 906.29] (H-[dA]A[Cha]AAAATKKAA[dA]-NH2; N-terminus and C-terminus assumed), the IC50 was found to be 7.7 nM in the assay with DR5 (Table VIII A) and 283 nM in the assay on DQ3.1. In addition, the “Increase in DQ3.1 binding reactivity” value with DQ3.1 (relative to parent 760.57) was “no reactivity was gained”.
For the compound `C[C@H](NC(=O)[C@H](C)NC(=O)[C@H](C)NC(=O)[C@H](CC1CCCCC1)NC(=O)[C@H](C)NC(=O)[C@@H](C)N)C(=O)N[C@@H](C)C(=O)N[C@H](C(=O)N[C@@H](CCC(N)=O)C(=O)N[C@@H](CCCCN)C(=O)N[C@@H](C)C(=O)N[C@@H](C)C(=O)N[C@H](C)C(N)=O)[C@@H](C)O` [Peptide 906.31], the results for the IC50 with DR5 (Table VIII A), in the assay on DR7 (Table VIII A) and in the assay on DQ3.1 were 11.8 nM, 100 nM and 52.6 nM, respectively.
Consider `CC(C)C[C@H](NC(=O)[C@@H](NC(=O)[C@H](C)NC(=O)[C@H](C)NC(=O)[C@H](C)NC(=O)[C@H](C)NC(=O)[C@H](CC1CCCCC1)NC(=O)[C@H](C)NC(=O)[C@@H](C)N)[C@@H](C)O)C(=O)N[C@@H](CCC(=O)O)C(=O)N[C@@H](C)C(=O)N[C@@H](C)C(=O)N[C@H](C)C(N)=O` [Peptide 906.35], for which the IC50 in the assay on DR5 (Table VIII A) was 10.5 nM; in the assay on DQ3.1, 39.5 nM.
As for `CC(C)C[C@H](NC(=O)[C@@H](NC(=O)[C@H](C)NC(=O)[C@H](C)NC(=O)[C@H](C)NC(=O)[C@H](C)NC(=O)[C@H](CC1CCCCC1)NC(=O)[C@H](C)NC(=O)[C@@H](C)N)[C@@H](C)O)C(=O)N[C@@H](CCC(N)=O)C(=O)N[C@@H](C)C(=O)N[C@@H](C)C(=O)N[C@H](C)C(N)=O` [Peptide 906.36], the results for the IC50 in the assay on DR5 (Table VIII A) and with DQ3.1 were 8.3 nM and 23.7 nM, respectively.
Turning to `CC(C)C[C@H](NC(=O)[C@@H](NC(=O)[C@H](C)NC(=O)[C@H](C)NC(=O)[C@H](C)NC(=O)[C@H](C)NC(=O)[C@H](CC1CCCCC1)NC(=O)[C@H](C)NC(=O)[C@@H](C)N)[C@@H](C)O)C(=O)N[C@@H](Cc1ccccc1)C(=O)N[C@@H](C)C(=O)N[C@@H](C)C(=O)N[C@H](C)C(N)=O` [Peptide 906.38], the IC50 stood at 19.2 nM with DR5 (Table VIII A) and 56.8 nM in the assay on DR7 (Table VIII A).
In the case of `CC(C)C[C@H](NC(=O)[C@@H](NC(=O)[C@H](C)NC(=O)[C@H](C)NC(=O)[C@H](C)NC(=O)[C@H](C)NC(=O)[C@H](CC1CCCCC1)NC(=O)[C@H](C)NC(=O)[C@@H](C)N)[C@@H](C)O)C(=O)N[C@@H](CCCCN)C(=O)N[C@@H](CCC(=O)O)C(=O)N[C@@H](C)C(=O)N[C@H](C)C(N)=O` [Peptide 906.41] (H-[dA]A[Cha]AAAATLKEA[dA]-NH2; N-terminus and C-terminus assumed), the IC50 in the assay on DR7 (Table VIII A) amounted to 252 nM.
Regarding `CC(C)C[C@H](NC(=O)[C@@H](NC(=O)[C@H](C)NC(=O)[C@H](C)NC(=O)[C@H](C)NC(=O)[C@H](C)NC(=O)[C@H](CC1CCCCC1)NC(=O)[C@H](C)NC(=O)[C@@H](C)N)[C@@H](C)O)C(=O)N[C@@H](CCCCN)C(=O)N[C@@H](CCC(N)=O)C(=O)N[C@@H](C)C(=O)N[C@H](C)C(N)=O` [Peptide 906.42] (H-[dA]A[Cha]AAAATLKQA[dA]-NH2; N-terminus and C-terminus assumed), the IC50 worked out at 29.4 nM in the assay with DR5 (Table VIII A) and 484 nM in the assay on DQ3.1.
On to `CC(C)C[C@H](NC(=O)[C@@H](NC(=O)[C@H](C)NC(=O)[C@H](C)NC(=O)[C@H](C)NC(=O)[C@H](C)NC(=O)[C@H](CC1CCCCC1)NC(=O)[C@H](C)NC(=O)[C@@H](C)N)[C@@H](C)O)C(=O)N[C@@H](CCCCN)C(=O)N[C@@H](Cc1ccccc1)C(=O)N[C@@H](C)C(=O)N[C@H](C)C(N)=O` [Peptide 906.44] (H-[dA]A[Cha]AAAATLKFA[dA]-NH2; N-terminus and C-terminus assumed), for which the IC50 in the assay with DR5 (Table VIII A) was 104 nM; in the assay with DR7 (Table VIII A), 25 nM.
Consider `CC(C)C[C@H](NC(=O)[C@@H](NC(=O)[C@H](C)NC(=O)[C@H](C)NC(=O)[C@H](C)NC(=O)[C@H](C)NC(=O)[C@H](CC1CCCCC1)NC(=O)[C@H](C)NC(=O)[C@@H](C)N)[C@@H](C)O)C(=O)N[C@@H](CCCCN)C(=O)N[C@@H](C)C(=O)N[C@@H](CCC(=O)O)C(=O)N[C@H](C)C(N)=O` [Peptide 906.47] (H-[dA]A[Cha]AAAATLKAE[dA]-NH2; N-terminus and C-terminus assumed), for which the values for the IC50 with DR5 (Table VIII A) and in the assay with DQ3.1 were 25.5 nM and 60.2 nM, respectively.
On to `CC(C)C[C@H](NC(=O)[C@@H](NC(=O)[C@H](CC(N)=O)NC(=O)[C@H](C)NC(=O)[C@H](Cc1c[nH]c2ccccc12)NC(=O)[C@@H](NC(=O)[C@H](CC1CCCCC1)NC(=O)[C@H](CCCCN)NC(=O)[C@@H](C)N)C(C)C)[C@@H](C)O)C(=O)N[C@@H](CCCCN)C(=O)N[C@@H](C)C(=O)N[C@@H](C)C(=O)N[C@H](C)C(N)=O` [Peptide 965.031], for which the IC50 turned out to be 8.3 nM in the assay with DR5 (Table IX); 2.9 nM in the assay on DR5 (Table IX, listed as 965.032); 208 nM in the assay with DR7 (Table IX).
Turning to `CC(C)C[C@H](NC(=O)[C@@H](NC(=O)[C@H](Cc1c[nH]cn1)NC(=O)[C@H](C)NC(=O)[C@H](CCCCN)NC(=O)[C@@H](NC(=O)[C@H](CC1CCCCC1)NC(=O)[C@H](CCCCN)NC(=O)[C@@H](C)N)C(C)C)[C@@H](C)O)C(=O)N[C@@H](CCCCN)C(=O)N[C@@H](C)C(=O)N[C@@H](C)C(=O)N[C@H](C)C(N)=O` [Peptide 965.071], the IC50 with DR5 (Table IX) came out at 10.5 nM; with DR5 (Table IX, listed as 965.072), 4.8 nM; in the assay on DR7 (Table IX, listed as 965.072), 556 nM.
